Measured values as given in ChEMBL document CHEMBL1130174, “Pyrrolidine-3-carboxylic acids as endothelin antagonists. 2. Sulfonamide-based ETA/ETB mixed antagonists” (J Med Chem, 1997).

What was measured:
[1] = Ratio of endothelin A receptor and endothelin B receptor.
Endothelin-1 receptor = molecular target: T1, Endothelin-1 receptor (Rattus norvegicus, UniProt P26684); experiment: Ability to displace endothelin ([125I]ET1) from endothelin A receptor derived from MMQ cells of rodent.; type: cell-based, Rodentia sp.
T1 sequence (P26684 whole entry): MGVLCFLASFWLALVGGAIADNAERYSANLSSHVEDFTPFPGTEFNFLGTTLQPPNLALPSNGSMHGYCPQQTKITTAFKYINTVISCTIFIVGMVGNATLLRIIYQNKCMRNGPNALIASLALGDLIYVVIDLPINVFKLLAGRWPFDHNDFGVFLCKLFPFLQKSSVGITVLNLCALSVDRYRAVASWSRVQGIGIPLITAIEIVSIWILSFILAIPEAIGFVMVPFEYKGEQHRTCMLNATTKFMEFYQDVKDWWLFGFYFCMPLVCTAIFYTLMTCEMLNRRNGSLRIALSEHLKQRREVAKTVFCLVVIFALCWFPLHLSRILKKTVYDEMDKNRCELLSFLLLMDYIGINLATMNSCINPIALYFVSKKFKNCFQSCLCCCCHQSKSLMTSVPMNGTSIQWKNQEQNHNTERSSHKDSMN

[2] = molecular target: T2, Endothelin receptor type B (Sus scrofa, UniProt P35463); experiment: Ability to displace endothelin ([125I]ET-3) from endothelin B receptor derived from cerebellar tissue of porcine.
T2 sequence (P35463 whole entry): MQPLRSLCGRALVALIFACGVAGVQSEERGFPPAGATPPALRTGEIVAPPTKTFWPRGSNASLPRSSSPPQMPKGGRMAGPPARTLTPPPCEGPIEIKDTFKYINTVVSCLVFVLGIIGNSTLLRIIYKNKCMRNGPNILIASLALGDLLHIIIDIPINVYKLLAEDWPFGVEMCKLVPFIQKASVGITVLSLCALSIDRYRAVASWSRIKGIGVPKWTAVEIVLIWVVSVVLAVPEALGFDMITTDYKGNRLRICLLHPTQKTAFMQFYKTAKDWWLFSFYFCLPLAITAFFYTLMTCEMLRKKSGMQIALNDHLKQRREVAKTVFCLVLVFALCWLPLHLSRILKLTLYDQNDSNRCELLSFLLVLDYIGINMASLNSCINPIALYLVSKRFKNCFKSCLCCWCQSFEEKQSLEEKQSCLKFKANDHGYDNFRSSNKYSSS

[3] = Oral bioavailability in rat; type: ADME, organism-based; conditions: in vivo
[4] = Half-life is obtained after intravenous dosing of rats.; type: ADME, organism-based; conditions: rat, in vivo

Row | SMILES | Ratio [1] | IC50 (Endothelin-1 receptor) [nM] | IC50 [2] [nM] | bioavailability [3] [%] | half-life [4] [h]
1 | CCCCN(CCN1C[C@H](c2ccc3c(c2)OCO3)[C@@H](C(=O)O)[C@@H]1c1ccc(OC)cc1)C(=O)CCC | 43 | 20 | 850 |  | 
2 | CCCN(CCN1C[C@H](c2ccc3c(c2)OCO3)[C@@H](C(=O)O)[C@@H]1c1ccc(OC)cc1)S(=O)(=O)c1ccccc1 | 150 | 1.4 | 210 |  | 
3 | CCCN(CCN1C[C@H](c2ccc3c(c2)OCO3)[C@@H](C(=O)O)[C@@H]1c1ccc(OC)c(F)c1)S(=O)(=O)Cc1ccccc1 | 1.1 | 2.7 | 2.9 |  | 
4 | CCCCCCS(=O)(=O)N(CCC)CCN1C[C@H](c2ccc3c(c2)OCO3)[C@@H](C(=O)O)[C@@H]1c1ccc(OC)cc1 | 10 | 0.43 | 4.5 |  | 
5 | CCCN(CCN1C[C@H](c2ccc3c(c2)OCO3)[C@@H](C(=O)O)[C@@H]1c1ccc(OC)cc1)S(=O)(=O)Cc1ccccc1 |  |  | 34 |  | 
6 | CCCCCS(=O)(=O)N(CCC)CCN1C[C@H](c2ccc3c(c2)OCO3)[C@@H](C(=O)O)[C@@H]1c1ccc(OC)c(OC)c1 | 32 | 2.3 | 73 |  | 
7 | CCCN(CCN1C[C@H](c2ccc3c(c2)OCO3)[C@@H](C(=O)O)[C@@H]1c1ccc(OC)cc1)S(=O)(=O)c1ccc(OC)cc1 | 120 | 0.53 | 66 |  | 
8 | CCCCCS(=O)(=O)N(CCC)CCN1C[C@H](c2ccc3c(c2)OCO3)[C@@H](C(=O)O)[C@@H]1c1ccc(F)c(F)c1 | 3.8 | 18 | 68 |  | 
9 | CCCCCS(=O)(=O)N(CCC)CCN1C[C@H](c2ccc3c(c2)OCO3)[C@@H](C(=O)O)[C@@H]1c1ccc(OC)c(F)c1 (stereo in doubt; 13e) |  |  | 0.85 |  | 
10 | CCCCCS(=O)(=O)N(CCC)CCN1C[C@H](c2ccc3c(c2)OCO3)[C@@H](C(=O)O)[C@@H]1c1ccc(OCC)c(F)c1 | 2 | 1.3 | 2.6 |  | 
11 | CCCCCS(=O)(=O)N(CCC)CCN1C[C@H](c2ccc3c(c2)OCO3)[C@@H](C(=O)O)[C@@H]1c1ccc(OC)cc1 | 7.2 | 0.57 | 4.1 |  | 
12 | CCCCCS(=O)(=O)N(CCC)CCN1C[C@H](c2ccc3c(c2)OCO3)[C@@H](C(=O)O)[C@@H]1c1ccc2c(c1)OCCO2 | 10 | 0.66 | 7 |  | 
13 | CCCCCS(=O)(=O)N(CCC)CCN1C[C@H](c2ccc3c(c2)OCO3)[C@@H](C(=O)O)[C@@H]1c1ccc(OCOC)cc1 | 8.4 | 0.62 | 5.2 |  | 
14 | CCCN(CCN1C[C@H](c2ccc3c(c2)OCO3)[C@@H](C(=O)O)[C@@H]1c1ccc(OC)cc1)S(=O)(=O)CC(C)C | 6.6 | 0.78 | 5.2 |  | 
15 | CCCN(CCN1C[C@H](c2ccc3c(c2)OCO3)[C@@H](C(=O)O)[C@@H]1c1ccc(OC)c(F)c1)S(=O)(=O)CCC(C)C | 2.6 | 0.46 | 1.2 |  | 
16 | CCCCS(=O)(=O)N(CCC)CCN1C[C@H](c2ccc3c(c2)OCO3)[C@@H](C(=O)O)[C@@H]1c1ccc(OC)c(F)c1 (stereo in doubt; 14a) |  |  | 1 |  | 
17 | CCCN(CCN1C[C@H](c2ccc3c(c2)OCO3)[C@@H](C(=O)O)[C@@H]1c1ccc(OC)c(F)c1)S(=O)(=O)CC(C)C | 7.6 | 0.21 | 1.6 |  | 
18 | CCCN(CCN1C[C@H](c2ccc3c(c2)OCO3)[C@@H](C(=O)O)[C@@H]1c1ccc(OC)cc1)S(=O)(=O)CCCCl | 3.1 | 2 | 6.3 |  | 

Row | SMILES | Ratio [1] | IC50 (Endothelin-1 receptor) [nM] | IC50 [2] [nM] | bioavailability [3] [%] | half-life [4] [h]
19 | CCCN(CCN1C[C@H](c2ccc3c(c2)OCO3)[C@@H](C(=O)O)[C@@H]1c1ccc(OC)c(F)c1)S(=O)(=O)CCCCl (stereo in doubt; 14e) [listing 1 of 2 here] | 2.5 |  |  |  | 
20 | CCCCCS(=O)(=O)N(CCC)CCN1C[C@H](c2ccc3c(c2)OCO3)[C@@H](C(=O)O)[C@@H]1c1ccc(OCCC)cc1 | 13 | 48 | 610 |  | 
21 | CCCN(CCN1C[C@H](c2ccc3c(c2)OCO3)[C@@H](C(=O)O)[C@@H]1c1ccc(OC)cc1)S(=O)(=O)c1ccc(C)cc1 | 10 | 8.3 | 85 |  | 
22 | CCCN(CCN1C[C@H](c2ccc3c(c2)OCO3)[C@@H](C(=O)O)[C@@H]1c1ccc(OC)cc1)S(=O)(=O)CCOC | 15 | 5.2 | 77 |  | 
23 | CCCCN(CCN1C[C@H](c2ccc3c(c2)OCO3)[C@@H](C(=O)O)[C@@H]1c1ccc(OC)cc1)S(=O)(=O)CCC | 30 | 2 | 60 |  | 
24 | CCCN(CCN1C[C@H](c2ccc3c(c2)OCO3)[C@@H](C(=O)O)[C@@H]1c1ccc(OC)c(F)c1)S(=O)(=O)CCCC(F)(F)F (stereo in doubt; 14f) |  |  | 0.98 |  | 
25 | CCCS(=O)(=O)N(C)CCN1C[C@H](c2ccc3c(c2)OCO3)[C@@H](C(=O)O)[C@@H]1c1ccc(OC)cc1 | 26 | 10 | 260 |  | 
26 | CCCS(=O)(=O)N(CCN1C[C@H](c2ccc3c(c2)OCO3)[C@@H](C(=O)O)[C@@H]1c1ccc(OC)cc1)CC(C)C | 7.7 | 8.1 | 62 |  | 
27 | CCCCCCS(=O)(=O)N(CCC)CCN1C[C@H](c2ccc3c(c2)OCO3)[C@@H](C(=O)O)[C@@H]1c1ccc(OC)c(F)c1 (stereo in doubt; 14b) |  |  | 1.5 |  | 
28 | CCCN(CCN1C[C@H](c2ccc3c(c2)OCO3)[C@@H](C(=O)O)[C@@H]1c1ccc(OC)cc1)S(=O)(=O)CCC | 22 | 1.6 | 36 |  | 
29 | CCCCS(=O)(=O)N(CCC)CCN1C[C@H](c2ccc3c(c2)OCO3)[C@@H](C(=O)O)[C@@H]1c1ccc(OC)cc1 | 4.7 | 2 | 9.4 |  | 
30 | CCCN(CCN1C[C@H](c2ccc3c(c2)OCO3)[C@@H](C(=O)O)[C@@H]1c1ccc(OC)c(F)c1)S(=O)(=O)CCCCl (stereo in doubt; 14e) [listing 2 of 2 here] |  | 0.4 | 1 |  | 
31 | CCCN(CCN1C[C@H](c2ccc3c(c2)OCO3)[C@@H](C(=O)O)[C@@H]1c1ccc(OC)cc1)S(=O)(=O)c1ccc(Cl)cc1 | 6.5 | 6.3 | 41 |  | 
32 | CCCCCCCS(=O)(=O)N(CCC)CCN1C[C@H](c2ccc3c(c2)OCO3)[C@@H](C(=O)O)[C@@H]1c1ccc(OC)cc1 | 11 | 5.1 | 57 |  | 
33 | CCCN(CCN1C[C@H](c2ccc3c(c2)OCO3)[C@@H](C(=O)O)[C@@H]1c1ccc(OC)cc1)S(=O)(=O)CC | 79 | 1.2 | 95 |  | 
34 | CCCCN(CCCC)C(=O)CN1C[C@H](c2ccc3c(c2)OCO3)[C@@H](C(=O)O)[C@@H]1c1ccc(OC)cc1 |  |  |  | 70 | 
35 | COc1ccccc1Oc1c(NS(=O)(=O)c2ccc(C(C)(C)C)cc2)nc(-c2ncccn2)nc1OCCO [BOSENTAN] |  |  |  | 30 | 4
